Reference: PMC7316745, “A small-molecule ARTS mimetic promotes apoptosis through degradation of both XIAP and Bcl-2” (Cell Death & Disease, 2020)

Experiments:
XIAP = biological target: T1, XIAP (Homo sapiens, UniProt P98170); assay: microscale thermophoresis (MST); format: binding
T1 construct: recombinant untagged XIAP, NT650-labelled (maleimide coupling)

786-0 = assay: cells; parameters: Sulforhodamine B growth/viability assay on tumour cell line panel (Oncolead), six dilutions, compound replenished daily; conditions: Homo sapiens, 786-0; 72 h, SRB; read-out: Supplementary table 1 / A4 IC50
Protocol: (§1) Screening of 94 different cancer cell lines spanning over 18 human tissues was performed by Oncolead Ltd. The company used an identical platform to the one NIH, NCI-60 uses to assess the effect of a compound on the viability of a variety of tumour cell lines. Briefly, cells are treated with a series of six dilutions of a compound for 72 h (compound is replenished daily). After 72 h, cells were fixed (living cells are attached to the plate), and then washed to remove dead and dying cells. Cells were then stained with a dye (sulforhodamine B) that dyes all proteins purple, which is measured by a plate reader and provides quantification of living cells. The number of cells treated with the compound is compared to the number of cells treated with DMSO (solvent). The inhibitory concentration (IC) value was calculated by taking the number of cells after 72 h of treatment and dividing by the number of cells after 72 h treatment with DMSO (C). IC50 is the value calculated from the dose–response plot, which is the concentration of the compound that has 50% decrease of the IC. To determine the specificity of A4 killing for various types of cancer, a panel of 94 cancer cell lines representing 18 different types of cancers were tested. The IC50 values for each cell line treated with A4 were determined (Oncolead Ltd). The cancers that were most sensitive to A4 killing were of haematological origin (8/12 different cell lines), melanoma (3/5 lines), pancreatic cancer and 4/7 lung cancers. Importantly, peripheral blood mononuclear cells (PBMCs), representing healthy normal cells, and 184A1, a normal human epithelium mammary gland cell, were not killed by A4 (Fig. 5a, Supplementary Table 1 and Fig. 5cI, respectively). To explore whether the levels of XIAP and Bcl-2 protein affect the sensitivity to A4, we analysed the available web proteomes and looked for a correlation. While data regarding XIAP expression levels were found in most proteomes (28 of 32 proteomes), Bcl-2 expression data were only detected in few (9 of 32 proteomes) (data not shown). A significant correlation was found between XIAP expression levels (ratio to actin, GAPDH) and the sensitivity to A4 (IC50, µM) in breast, ovary and kidney carcinomas (Fig. 5bI, II and Supplementary Tables 1 and 2). Cancer cell lines with high levels of XIAP were particularly sensitive to the killing effect of A4 (Fig. 5bI, II and Supplementary Tables 1 and 2). […] To further confirm that A4 functions as a specific antagonist for XIAP, we performed a SKOV-3 rescue assay. SKOV-3 ovarian carcinoma cells are highly sensitive to SMs[49]. SMs act by antagonizing cIAPs, an event that leads to cell death when complemented by an XIAP-dependent increase in TNFα production[47],[48],[58]. In SKOV-3 cells, XIAP is required for TNFα production, which recruits cIAP into a complex that activates caspase-8 and apoptosis through the extrinsic pathway (Fig. 6a)[49]. Knockdown of XIAP in SKOV-3 cells bestowed resistance to SMs[49]. We utilized this assay to investigate the specificity of A4 for XIAP compared to cIAPs. Treatment with 1 μM of the SM Birinapant for […]

ACHN = assay: cells; parameters: Sulforhodamine B growth/viability assay on tumour cell line panel (Oncolead), six dilutions, compound replenished daily; conditions: Homo sapiens, ACHN; 72 h, SRB; read-out: Supplementary table 1 / A4 IC50
Protocol: as §1

COLO205 = assay: cells; parameters: Sulforhodamine B growth/viability assay on tumour cell line panel (Oncolead), six dilutions, compound replenished daily; conditions: Homo sapiens, COLO 205; 72 h, SRB; read-out: Supplementary table 1 / A4 IC50
Protocol: as §1

COLO678 = assay: cells; parameters: Sulforhodamine B growth/viability assay on tumour cell line panel (Oncolead), six dilutions, compound replenished daily; conditions: Homo sapiens, COLO-678; 72 h, SRB; read-out: Supplementary table 1 / A4 IC50
Protocol: as §1

Caco-2 = assay: cells; parameters: Sulforhodamine B growth/viability assay on tumour cell line panel (Oncolead), six dilutions, compound replenished daily; conditions: Homo sapiens, Caco-2; 72 h, SRB; read-out: Supplementary table 1 / A4 IC50
Protocol: as §1

Caki1 = assay: cells; parameters: Sulforhodamine B growth/viability assay on tumour cell line panel (Oncolead), six dilutions, compound replenished daily; conditions: Homo sapiens, CAKI-1; 72 h, SRB; read-out: Supplementary table 1 / A4 IC50
Protocol: as §1

DLD1 = assay: cells; parameters: Sulforhodamine B growth/viability assay on tumour cell line panel (Oncolead), six dilutions, compound replenished daily; conditions: Homo sapiens, DLD-1; 72 h, SRB; read-out: Supplementary table 1 / A4 IC50
Protocol: as §1

HCT116 = assay: cells; parameters: Sulforhodamine B growth/viability assay on tumour cell line panel (Oncolead), six dilutions, compound replenished daily; conditions: Homo sapiens, HCT-116; 72 h, SRB; read-out: Supplementary table 1 / A4 IC50
Protocol: as §1

HCT15 = assay: cells; parameters: Sulforhodamine B growth/viability assay on tumour cell line panel (Oncolead), six dilutions, compound replenished daily; conditions: Homo sapiens, HCT-15; 72 h, SRB; read-out: Supplementary table 1 / A4 IC50
Protocol: as §1

HEK293 = assay: cells; parameters: Sulforhodamine B growth/viability assay on tumour cell line panel (Oncolead), six dilutions, compound replenished daily; conditions: Homo sapiens, HEK293; 72 h, SRB; read-out: Supplementary table 1 / A4 IC50
Protocol: as §1

HS578T = assay: cells; parameters: Sulforhodamine B growth/viability assay on tumour cell line panel (Oncolead), six dilutions, compound replenished daily; conditions: Homo sapiens, Hs-578T; 72 h, SRB; read-out: Supplementary table 1 / A4 IC50
Protocol: as §1

HT-29 = assay: cells; parameters: Sulforhodamine B growth/viability assay on tumour cell line panel (Oncolead), six dilutions, compound replenished daily; conditions: Homo sapiens, HT-29; 72 h, SRB; read-out: Supplementary table 1 / A4 IC50
Protocol: as §1

IGROV-1 = assay: cells; parameters: Sulforhodamine B growth/viability assay on tumour cell line panel (Oncolead), six dilutions, compound replenished daily; conditions: Homo sapiens, IGROV-1; 72 h, SRB; read-out: Supplementary table 1 / A4 IC50
Protocol: as §1

LOVO = assay: cells; parameters: Sulforhodamine B growth/viability assay on tumour cell line panel (Oncolead), six dilutions, compound replenished daily; conditions: Homo sapiens, LoVo; 72 h, SRB; read-out: Supplementary table 1 / A4 IC50
Protocol: as §1

MCF-7 = assay: cells; parameters: Sulforhodamine B growth/viability assay on tumour cell line panel (Oncolead), six dilutions, compound replenished daily; conditions: Homo sapiens, MCF7; 72 h, SRB; read-out: Supplementary table 1 / A4 IC50
Protocol: as §1

MDAMB231 = assay: cells; parameters: Sulforhodamine B growth/viability assay on tumour cell line panel (Oncolead), six dilutions, compound replenished daily; conditions: Homo sapiens, MDA-MB-231; 72 h, SRB; read-out: Supplementary table 1 / A4 IC50
Protocol: as §1

MDAMB436 = assay: cells; parameters: Sulforhodamine B growth/viability assay on tumour cell line panel (Oncolead), six dilutions, compound replenished daily; conditions: Homo sapiens, MDA-MB-436; 72 h, SRB; read-out: Supplementary table 1 / A4 IC50
Protocol: as §1

MDAMB468 = assay: cells; parameters: Sulforhodamine B growth/viability assay on tumour cell line panel (Oncolead), six dilutions, compound replenished daily; conditions: Homo sapiens, MDA-MB-468; 72 h, SRB; read-out: Supplementary table 1 / A4 IC50
Protocol: as §1

OVCAR3 = assay: cells; parameters: Sulforhodamine B growth/viability assay on tumour cell line panel (Oncolead), six dilutions, compound replenished daily; conditions: Homo sapiens, OVCAR-3; 72 h, SRB; read-out: Supplementary table 1 / A4 IC50
Protocol: as §1

OVCAR4 = assay: cells; parameters: Sulforhodamine B growth/viability assay on tumour cell line panel (Oncolead), six dilutions, compound replenished daily; conditions: Homo sapiens, OVCAR-4; 72 h, SRB; read-out: Supplementary table 1 / A4 IC50
Protocol: as §1

SKBR3 = assay: cells; parameters: Sulforhodamine B growth/viability assay on tumour cell line panel (Oncolead), six dilutions, compound replenished daily; conditions: Homo sapiens, SK-BR-3; 72 h, SRB; read-out: Supplementary table 1 / A4 IC50
Protocol: as §1

SKOV-3 = assay: cells; parameters: Sulforhodamine B growth/viability assay on tumour cell line panel (Oncolead), six dilutions, compound replenished daily; conditions: Homo sapiens, SK-OV-3; 72 h, SRB; read-out: Supplementary table 1 / A4 IC50
Protocol: as §1

SW620 = assay: cells; parameters: Sulforhodamine B growth/viability assay on tumour cell line panel (Oncolead), six dilutions, compound replenished daily; conditions: Homo sapiens, SW-620; 72 h, SRB; read-out: Supplementary table 1 / A4 IC50
Protocol: as §1

UO31 = assay: cells; parameters: Sulforhodamine B growth/viability assay on tumour cell line panel (Oncolead), six dilutions, compound replenished daily; conditions: Homo sapiens, UO-31; 72 h, SRB; read-out: Supplementary table 1 / A4 IC50
Protocol: as §1

T1 sequence (P98170 whole entry): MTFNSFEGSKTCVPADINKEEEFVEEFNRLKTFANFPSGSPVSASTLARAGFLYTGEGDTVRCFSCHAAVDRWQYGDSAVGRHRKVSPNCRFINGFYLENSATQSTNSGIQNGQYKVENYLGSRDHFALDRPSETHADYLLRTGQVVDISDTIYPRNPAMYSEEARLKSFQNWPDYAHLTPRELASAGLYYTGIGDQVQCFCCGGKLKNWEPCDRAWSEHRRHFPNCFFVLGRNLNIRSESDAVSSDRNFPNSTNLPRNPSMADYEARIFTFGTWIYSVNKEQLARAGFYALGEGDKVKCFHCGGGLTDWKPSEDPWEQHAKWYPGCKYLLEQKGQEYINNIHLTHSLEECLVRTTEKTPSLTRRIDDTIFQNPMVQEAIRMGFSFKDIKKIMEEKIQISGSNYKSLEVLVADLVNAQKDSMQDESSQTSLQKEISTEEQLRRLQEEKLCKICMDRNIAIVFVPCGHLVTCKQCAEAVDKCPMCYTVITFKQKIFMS

For COC(=O)c1[nH]c2ccc(Cl)cc2c1NC(=O)CN1CCN(Cc2ccccc2)CC1 [A4, methyl 5-chloro-3-[[2-[4-(phenylmethyl)piperazin-1-yl]acetyl]amino]-1H-indole-2-carboxylat], the Kd (XIAP) was 0.348 ± 0.228 µM, the IC50 (786-0) was 6.3 µM and the IC50 (ACHN) was 5.99 µM. It also gave an IC50 (COLO205) of 7.38 µM, an IC50 (COLO678) of 14.4 µM and an IC50 (Caco-2) of 8.14 µM. It also gave an IC50 (Caki1) of 8.14 µM, an IC50 (DLD1) of 8.24 µM and an IC50 (HCT116) of 11.2 µM. The IC50 (HCT15) was 5.03 µM, the IC50 (HEK293) was 2.8 µM and the IC50 (HS578T) was 9.56 µM. For the same molecule, the IC50 (HT-29) was 1.84 µM, the IC50 (IGROV-1) was 8.08 µM and the IC50 (LOVO) was 5.96 µM. For the same molecule, the IC50 (MCF-7) was 4.61 µM, the IC50 (MDAMB231) was 10.1 µM and the IC50 (MDAMB436) was 7.16 µM. It also gave an IC50 (MDAMB468) of 6.22 µM, an IC50 (OVCAR3) of 8.4 µM and an IC50 (OVCAR4) of 9.99 µM. The IC50 (SKBR3) was 7.98 µM, the IC50 (SKOV-3) was 13.6 µM and the IC50 (SW620) was 10.4 µM. For the same molecule, the IC50 (UO31) was 6.48 µM.
